Source: ChEMBL document CHEMBL5244277, “A review upon medicinal perspective and designing rationale of DPP-4 inhibitors” (Bioorg Med Chem, 2021)

Tests used:
[1] = Cmax in ICR mouse at 1 to 10 mg/kg, po; assay type: ADME, organism-based; parameters: route po; conditions: in vivo, dose 1-10 mg/kg
[2] = Metabolic stability in human liver microsomes assessed as intrinsic clearance; assay type: ADME, Microsome; conditions: read-out: CLH
[3] = Tmax in ICR mouse at 1 to 10 mg/kg, po; assay type: ADME, organism-based; conditions: in vivo, dose 1-10 mg/kg
[4] = Half life in ICR mouse at 1 to 10 mg/kg, po; assay type: ADME, organism-based; conditions: in vivo, dose 1-10 mg/kg
[5] = MRT in ICR mouse at 1 to 10 mg/kg, po; assay type: ADME, organism-based; conditions: in vivo, dose 1-10 mg/kg
Dipeptidyl peptidase 4 [6] = biological target: T1, Dipeptidyl peptidase 4 (Homo sapiens, UniProt P27487); assay: Inhibition of human recombinant DPP-4 using H-Gly-Pro-aminomethylcoumarin as substrate at 100 uM relative to control
Target sequence in this assay (P27487 whole entry, looked up): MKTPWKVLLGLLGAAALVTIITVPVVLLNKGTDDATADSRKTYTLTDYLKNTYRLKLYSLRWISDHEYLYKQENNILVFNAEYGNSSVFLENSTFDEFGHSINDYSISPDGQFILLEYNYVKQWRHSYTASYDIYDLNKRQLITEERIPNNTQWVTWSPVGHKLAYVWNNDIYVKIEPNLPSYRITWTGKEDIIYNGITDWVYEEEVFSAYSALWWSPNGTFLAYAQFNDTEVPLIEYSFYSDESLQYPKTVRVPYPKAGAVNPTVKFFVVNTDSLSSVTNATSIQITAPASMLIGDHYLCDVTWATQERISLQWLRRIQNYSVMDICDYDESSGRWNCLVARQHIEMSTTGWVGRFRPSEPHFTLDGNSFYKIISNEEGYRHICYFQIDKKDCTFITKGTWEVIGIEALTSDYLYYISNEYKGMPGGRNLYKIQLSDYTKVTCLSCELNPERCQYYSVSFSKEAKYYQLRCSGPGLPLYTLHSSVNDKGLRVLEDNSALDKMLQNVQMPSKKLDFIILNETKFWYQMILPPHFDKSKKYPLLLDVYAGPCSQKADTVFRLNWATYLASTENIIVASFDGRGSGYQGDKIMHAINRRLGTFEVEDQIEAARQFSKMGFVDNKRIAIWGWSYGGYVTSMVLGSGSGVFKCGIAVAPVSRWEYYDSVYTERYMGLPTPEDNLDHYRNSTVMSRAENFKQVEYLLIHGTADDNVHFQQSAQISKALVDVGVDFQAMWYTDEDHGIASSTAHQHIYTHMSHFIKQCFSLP

Homo sapiens [7] = organism: Homo sapiens; assay: Selectivity index, ratio of IC50 for human recombinant DPP-4 to IC50 for human recombinant DPP-8
Mus musculus [8] = assay: Hypoglycemic activity in ICR mouse assessed as reduction in blood glucose level at 30 mg/kg measured at 120 mins; assay type: ADME, organism-based; parameters: scale not given: the % may be the effect or the level left; conditions: in vivo, 2 h
Dipeptidyl peptidase 4 [9] = biological target: T1, Dipeptidyl peptidase 4; assay: Inhibition of human recombinant DPP-4 using H-Gly-Pro-aminomethylcoumarin as substrate
Target sequence in this assay (P27487 whole entry): as the sequence (P27487 whole entry, looked up) above

Mus musculus [10] = assay: Hypoglycemic activity in ICR mouse assessed as reduction in blood glucose level at 3 mg/kg measured at 120 mins; assay type: ADME, organism-based; parameters: scale not given: the % may be the effect or the level left; conditions: in vivo, 2 h
Homo sapiens [11] = organism: Homo sapiens; assay: Selectivity index, ratio of IC50 for human recombinant DPP-4 to IC50 for human recombinant DPP-9
[12] = Aqueous stability in phosphate buffer at pH 7.4 assessed as half life; assay type: physicochemical
Dipeptidyl peptidase 4 [13] = biological target: T1, Dipeptidyl peptidase 4; assay: Inhibition of DPP-4 (unknown origin) using (H-Gly-Pro-AMC) as substrate
Target sequence in this assay (P27487 whole entry): as the sequence (P27487 whole entry, looked up) above

Mus musculus [14] = assay: Hypoglycemic activity in KKAy mouse assessed as reduction in blood glucose level at 3 mg/kg; assay type: ADME, organism-based; parameters: scale not given: the % may be the effect or the level left; conditions: in vivo
Mus musculus [15] = assay: Hypoglycemic activity in KKAy mouse assessed as reduction in blood glucose level at 30 mg/kg; assay type: ADME, organism-based; parameters: scale not given: the % may be the effect or the level left; conditions: in vivo
Mus musculus [16] = assay: Hypoglycemic activity in C57BL/6J mouse assessed as reduction in blood glucose level at 20 mg/kg, iv measured for 180 mins; assay type: ADME, organism-based; parameters: scale not given: the % may be the effect or the level left; conditions: in vivo, 3 h
Dipeptidyl peptidase 4 [17] = biological target: T1, Dipeptidyl peptidase 4
Target sequence in this assay (P27487 whole entry): as the sequence (P27487 whole entry, looked up) above

Mus musculus [18] = assay: Hypoglycemic activity in C57BL/6J mouse assessed as reduction in blood glucose level at 5 mg/kg, iv measured for 180 mins; assay type: ADME, organism-based; parameters: scale not given: the % may be the effect or the level left; conditions: in vivo, 3 h
Homo sapiens [19] = organism: Homo sapiens; assay: Selectivity index, ratio of IC50 for DPP-9 (unknown origin) to IC50 for DPP-4 (unknown origin)
Mus musculus [20] = assay: Hypoglycemic activity in C57BL/6J mouse assessed as reduction in blood glucose level at 10 mg/kg, iv measured for 180 mins; assay type: ADME, organism-based; parameters: scale not given: the % may be the effect or the level left; conditions: in vivo, 3 h
Homo sapiens [21] = organism: Homo sapiens; assay: Selectivity index, ratio of IC50 for DPP-8 (unknown origin) to IC50 for DPP-4 (unknown origin)
[22] = Biovailability in mouse at 3 to 10 mg/kg, iv; assay type: ADME, organism-based; conditions: in vivo, dose 3-10 mg/kg
Dipeptidyl peptidase 8 = Dipeptidyl peptidase 8 (Homo sapiens, UniProt Q6V1X1); assay: Inhibition of human recombinant DPP-8
Dipeptidyl peptidase 8, sequence (Q6V1X1 whole entry): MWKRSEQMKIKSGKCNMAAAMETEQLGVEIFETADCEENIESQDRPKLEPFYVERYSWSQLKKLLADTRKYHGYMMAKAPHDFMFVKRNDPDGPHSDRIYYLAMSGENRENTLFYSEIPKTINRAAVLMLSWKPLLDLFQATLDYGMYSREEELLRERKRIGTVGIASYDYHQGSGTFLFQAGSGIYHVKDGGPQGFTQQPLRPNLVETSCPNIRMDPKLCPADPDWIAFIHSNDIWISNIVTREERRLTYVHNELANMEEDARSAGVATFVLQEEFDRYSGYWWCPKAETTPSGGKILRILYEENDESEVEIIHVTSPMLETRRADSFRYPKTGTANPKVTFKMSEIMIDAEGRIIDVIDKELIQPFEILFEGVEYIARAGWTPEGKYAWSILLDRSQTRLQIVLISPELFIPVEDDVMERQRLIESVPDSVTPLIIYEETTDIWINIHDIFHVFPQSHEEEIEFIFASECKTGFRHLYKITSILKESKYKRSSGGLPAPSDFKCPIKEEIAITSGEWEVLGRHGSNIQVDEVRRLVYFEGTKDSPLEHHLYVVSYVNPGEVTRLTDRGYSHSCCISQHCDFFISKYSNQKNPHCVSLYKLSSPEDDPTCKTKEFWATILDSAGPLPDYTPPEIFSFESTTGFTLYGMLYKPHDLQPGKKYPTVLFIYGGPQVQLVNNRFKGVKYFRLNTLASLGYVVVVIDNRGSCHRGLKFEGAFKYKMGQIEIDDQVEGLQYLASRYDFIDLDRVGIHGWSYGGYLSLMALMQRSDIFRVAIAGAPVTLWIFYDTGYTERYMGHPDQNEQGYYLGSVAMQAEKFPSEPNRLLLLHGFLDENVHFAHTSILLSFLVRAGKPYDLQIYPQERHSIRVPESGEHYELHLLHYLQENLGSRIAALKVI

[23] = Clearance in mouse at 3 to 10 mg/kg, iv; assay type: ADME, organism-based; conditions: in vivo, dose 3-10 mg/kg
Dipeptidyl peptidase 9 = Dipeptidyl peptidase 9 (Homo sapiens, UniProt Q86TI2); assay: Inhibition of human recombinant DPP-9
Dipeptidyl peptidase 9, sequence (Q86TI2 whole entry): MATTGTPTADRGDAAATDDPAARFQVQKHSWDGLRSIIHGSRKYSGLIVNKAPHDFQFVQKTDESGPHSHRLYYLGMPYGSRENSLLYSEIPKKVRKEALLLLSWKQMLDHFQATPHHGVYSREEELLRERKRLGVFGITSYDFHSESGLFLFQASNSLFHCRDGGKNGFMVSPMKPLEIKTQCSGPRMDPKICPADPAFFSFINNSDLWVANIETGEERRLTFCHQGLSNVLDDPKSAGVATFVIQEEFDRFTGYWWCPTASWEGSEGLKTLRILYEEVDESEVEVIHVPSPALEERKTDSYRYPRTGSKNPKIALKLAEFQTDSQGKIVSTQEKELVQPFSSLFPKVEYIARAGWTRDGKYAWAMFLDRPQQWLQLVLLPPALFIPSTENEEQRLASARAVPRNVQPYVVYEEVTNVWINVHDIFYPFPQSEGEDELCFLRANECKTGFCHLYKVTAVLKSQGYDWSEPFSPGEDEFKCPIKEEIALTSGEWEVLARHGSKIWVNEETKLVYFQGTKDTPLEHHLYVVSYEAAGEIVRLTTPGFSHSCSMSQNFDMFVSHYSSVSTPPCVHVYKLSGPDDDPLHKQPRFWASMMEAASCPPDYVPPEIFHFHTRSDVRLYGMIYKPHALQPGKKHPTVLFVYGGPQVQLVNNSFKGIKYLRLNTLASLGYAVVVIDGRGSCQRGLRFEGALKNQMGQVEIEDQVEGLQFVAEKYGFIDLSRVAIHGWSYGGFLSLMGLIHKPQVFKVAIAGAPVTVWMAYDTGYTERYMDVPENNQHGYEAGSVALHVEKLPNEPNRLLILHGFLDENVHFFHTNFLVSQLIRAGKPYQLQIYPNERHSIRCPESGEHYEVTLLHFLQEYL

[24] = Metabolic stability in rat plasma assessed as parent compound remaining; assay type: ADME, cell-free
[25] = Cytotoxicity against human L02 cells assessed as cell viability after 72 hrs by MTT assay; assay type: toxicity, cell-based; conditions: read-out: Activity
Mus musculus [26] = assay: Hypoglycemic activity in mouse assessed as reduction in blood glucose level at 10 mg/kg measured after 120 mins; assay type: ADME, organism-based; parameters: scale not given: the % may be the effect or the level left; conditions: in vivo, 2 h
[27] = Metabolic stability in rat liver microsome assessed as parent compound remaining; assay type: ADME; conditions: microsomes
[28] = Half life in mouse at 3 to 10 mg/kg, iv; assay type: ADME, organism-based; conditions: in vivo, dose 3-10 mg/kg
[29] = Half life in Sprague-Dawley rat at 3 mg/kg, po; assay type: ADME, organism-based; conditions: in vivo
[30] = Half life in KKAy mouse at 10 to 30 mg/kg; assay type: ADME, organism-based; conditions: in vivo, dose 10-30 mg/kg
Mus musculus [31] = assay: Hypoglycemic activity in KKAy mouse assessed as reduction in blood glucose level at 10 mg/kg; assay type: ADME, organism-based; parameters: scale not given: the % may be the effect or the level left; conditions: in vivo
Mus musculus [32] = assay: Hypoglycemic activity in ICR mouse assessed as reduction in blood glucose level at 10 mg/kg; assay type: ADME, organism-based; parameters: scale not given: the % may be the effect or the level left; conditions: in vivo
Mus musculus [33] = assay: Hypoglycemic activity in ICR mouse assessed as reduction in blood glucose level at 3 mg/kg; assay type: ADME, organism-based; parameters: scale not given: the % may be the effect or the level left; conditions: in vivo
[34] = Oral bioavailability in KKAy mouse at 10 to 30 mg/kg; assay type: ADME, organism-based; conditions: in vivo, dose 10-30 mg/kg
Mus musculus [35] = assay: Hypoglycemic activity in ICR mouse assessed as reduction in blood glucose level at 30 mg/kg; assay type: ADME, organism-based; parameters: scale not given: the % may be the effect or the level left; conditions: in vivo
Mus musculus [36] = assay: Hypoglycemic activity in ICR mouse assessed as reduction in blood glucose level at 1 mg/kg; assay type: ADME, organism-based; parameters: scale not given: the % may be the effect or the level left; conditions: in vivo
[37] = Bioavailability in rat; assay type: ADME, organism-based; conditions: in vivo
[38] = Bioavailability in dog; assay type: ADME, organism-based, Canis lupus familiaris; conditions: in vivo
[39] = Bioavailability in monkey; assay type: ADME, organism-based, Macaca mulatta; conditions: rhesus monkey, in vivo
Mus musculus [40] = assay: Hypoglycemic activity in C57BL/6J mouse assessed as reduction in blood glucose level at 3 mg/kg, iv measured for 180 mins; assay type: ADME, organism-based; parameters: scale not given: the % may be the effect or the level left; conditions: in vivo, 3 h
Rattus norvegicus = assay: Antihyperglycemic activity in STZ-induced diabetic rat model assessed as reduction in blood glucose level at 100 mg/kg, po measured upto 24 hrs; assay type: functional; parameters: scale not given: the % may be the effect or the level left
Mus musculus [41] = assay: Antidiabetic activity in C57BL/6J mouse assessed as decrease in AUC of glucose at 3 mg/kg, po; assay type: functional; parameters: scale not given: the % may be the effect or the level left

N[C@@H](CCNC(=O)N1CCn2c(nnc2C(F)(F)F)C1)Cc1cc(F)c(F)cc1F
Cmax [1]: 719 ng/mL | CLint scaled [2]: < 100 mL/min/kg | Tmax [3]: 2 h | half-life [4]: 1.03 h | MRT [5]: 2.72 h

NCc1c(-c2ccc(Cl)cc2Cl)nc2ccccn12
inhibition (Dipeptidyl peptidase 4 [6]): 75% | Ratio IC50 (Homo sapiens [7]): 215 | Activity (Mus musculus [8]): 33.53% | IC50 (Dipeptidyl peptidase 4 [9]): 130 nM | Activity (Mus musculus [10]): 35% | Ratio IC50 (Homo sapiens [11]): 192

CO[C@@H]1CCCN1C(=O)CC(C)(C)[C@H](N)C(=O)N1CCC[C@H]1C#N.O=C(O)C(F)(F)F
half-life [12]: 168 h

Cc1ccc2cc(CNc3nc(C)cs3)n(/N=C/c3ccc(O)cc3)c(=O)c2c1
IC50 (Dipeptidyl peptidase 4 [13]): 1.12 nM

N#C[C@@H]1CCCN1C(=O)CNC1C[C@H]2CC(O)C[C@H]2C1 (stereo partly specified)
Activity (Mus musculus [14]): 61.9% | Activity (Mus musculus [15]): 52.2%

Brc1nc2n(n1)CC(c1cc3ccccc3o1)=NN2
Activity (Mus musculus [16]): 47.1% | IC50 (Dipeptidyl peptidase 4 [17]): 28500 nM | Activity (Mus musculus [18]): 19.6% | Ratio IC50 (Homo sapiens [19]): 8 | Activity (Mus musculus [20]): 33.6% | Ratio IC50 (Homo sapiens [21]): 8

CC#CCn1c(N2CCC[C@@H](N)C2)cc(=O)n(Cc2ccc(Cl)c(C(=O)N(C)C)c2)c1=O
bioavailability [22]: 27.3% | IC50 (Dipeptidyl peptidase 8): > 100000 nM | clearance [23]: 5.83 mL/min/kg | IC50 (Dipeptidyl peptidase 9): > 100000 nM | Stability [24]: 99.38% | viability at 72 h [25]: 100% | Activity (Mus musculus [26]): 16.4% | Stability [27]: 101.83% | half-life [28]: 11.1 h

N#C[C@@H]1C[C@H]2[C@H](CC2(F)F)N1C(=O)[C@@H](N)C12CC3CC(CC(O)(C3)C1)C2
half-life [29]: 0.92 h

N#C[C@@H]1C[C@H](F)CN1C(=O)[C@@H](N)Cc1ccccc1
half-life [30]: 5.4 h | Activity (Mus musculus [31]): 19.2% | Activity (Mus musculus [32]): 29.13% | Activity (Mus musculus [33]): 27.36% | bioavailability [34]: 21.8% | Activity (Mus musculus [35]): 27.57% | Activity (Mus musculus [36]): 18.75% | Activity (Mus musculus [15]): 26.4%

CC1c2nnc(C(F)(F)F)n2CCN1C(=O)C[C@H](N)Cc1cc(F)c(F)cc1F.Cl (stereo partly specified)
bioavailability [37]: 57% | IC50 (Dipeptidyl peptidase 4 [17]): 4.3 nM | bioavailability [38]: 91% | bioavailability [39]: 87%

N[C@@H](CC(=O)N1CCn2c(nnc2C(F)(F)F)C1)Cc1cc(F)c(F)cc1F [SITAGLIPTIN]
Activity (Mus musculus [40]): 27.8% | Activity (Rattus norvegicus): 31.9% | Activity (Mus musculus [41]): 17.9%
